One test has as its system acetylated H3K9 (AcH3K9). In words: Global acetylated H3K9 histone mark in Calu-6 cells, Western blot of nuclear protein. In kind it is cell-based, human. The conditions noted are these: Calu-6, increasing doses, 24 and 48 hours.
Another test concerns H3K4me2. In words: Global H3K4me2 histone mark in Calu-6 cells, Western blot of nuclear protein. In kind it is cell-based, human. The conditions noted are these: Calu-6, increasing doses (1, 5, 10 μM), 24 hours of treatment.

`CCNCCCNC/C=C\CNCCCNCC` [PG-11047, (2Z)-N1,N4-bis[3-(ethylamino)propyl]-2-butene-1,4-diamine]: in the test on acetylated H3K9 (AcH3K9), the “increase in global amounts of acetylated H3K9 protein” value is reported as 2-3 fold. The “increase in H3K4me2 protein” value with H3K4me2 was 2-4 fold.

The record behind these values is patent publication US20130102556A1, “Use of N1,N4-bis[3-(Ethylamino)Propyl]-2-Butene-1,4-Diamine Compounds in Combination with Epigenetic-Acting Pharmaceuticals for Enhanced Cancer Therapy” (THE JOHNS HOPKINS UNIVERSITY, priority 2010, published 2013).
